Test system: fifteen genes associated with the cytochrome p450 family
Experiment: Microarray gene expression in tissue of Tempol-fed mice, overall statement
Type: in vivo
Settings: 5 mg/g of food from 14 to 31 months after birth, cardiac tissue, vs control mice
Protocol: Mice receiving the same food without the addition of Tempol were used as a negative control. At the age of 31 months, the experimental animals were sacrificed and the hearts were surgically removed. The expression of a broad spectrum of genes in the cardiac tissue was assessed using chip-based microarray technology. Such chips are well known in the art and are widely used to assess gene expression.

`CC1(C)CC(O)CC(C)(C)N1[O]` [Tempol, 4-hydroxy-2,2,6,6-tetramethylpiperidine-1-oxyl] was tested, and the “Expression of fifteen genes associated with the cytochrome p450 family” value was “statistically significant increase in expression”.

Source: patent US20220378764A1, “[…] OF A GENE ENCODING A CYTOCHROME P450 PROTEIN BY TREATING A HUMAN SUBJECT WITH A NITROXIDE” (priority 2021, published 2022)
